Data reported in paper PMC5413848, “Optimization of intestinal microsomal preparation in the rat: A systematic approach to assess the influence of various methodologies on metabolic activity and scaling factors” (Biopharmaceutics & Drug Disposition, 2017).
Several values for one entry are separate records, joined by “and”; a condition that tells them apart may be missing. Equal values may be shown once.

Tests used:
[1] = design: method as in PMID 11587497; conditions: cited from earlier work
[2] = CYP activity: testosterone metabolite formation in rat intestinal microsomes; format: in vitro ADME; conditions: for Maximal rate of testosterone metabolite formation: 100 μM testosterone, 1 mg/ml
Method: The CYP enzyme activities were determined for the in‐house and commercial intestinal microsomes using the probe substrate testosterone. Testosterone metabolites and the respective rat cyp isoforms responsible for their formation are shown in Supplemental material Table 1 33. […] The reactions were initiated by the addition of testosterone. Samples were taken at 5, 15, 30 and 60 min. […] Following optimization of the bioanalytical methodology to improve reproducibility and sensitivity based on increasing the efficiency of protein precipitation 37, the samples were quenched 1:2 (sample: quench) in ice cold acetonitrile containing internal standard (1 μM 11‐β OH TEST) and stored overnight at −20°C. The following day, the plates were spun at 3000 rpm for 15 min, and 50 μl supernatant was diluted in 200 μl UPH2O. Samples were quantified using a Waters Acquity UPLC system with a PDA coupled to a G2 Q‐ToF MS (Waters, Milford, MA, USA), and a Acquity UPLC BEH C18 column, 130 Å, 1.7 μm, 2.1 mm × 100 mm and Acquity UPLC column with an in‐Line Filter Kit made up of the same phase (Waters). The sample (25 μl) was detected using an electrospray interface in positive mode, and source and desolvation temperatures, and desolvation and cone gas flows were 120°C and 400°C, and 800 l/h and 20 l/h, respectively. The cone voltage was 30 V. The elution times and LLOQ of testosterone and its hydroxy metabolites are shown in Supplemental material Table 2. The quantification of testosterone metabolites listed in Supplemental material Table 1 was made using standard curves (5–5000 pmol/ml) prepared from no cofactor added microsomes and prepared identically to the assay samples.

[3] = design: method as in PMID 11587497; conditions: Wistar rat intestinal microsomes prepared by elution, 30 cm intestine; cited from earlier work
[4] = Substrate depletion in commercial Han Wistar rat intestinal microsomes, combined or individual CYP and UGT cofactors; conditions: for microsomal CLint at 1 μM: male, Han Wistar, rat, microsomes, pH 7.4, CL int,u, Commercial Han Wistar pool, 1 mg/ml, 1 μM compound
Method: (§1) Microsomes prepared previously via the optimized method (preparation method 8) were combined to form pool 1 (n = 9 rats). A second set of three preparations was combined to form pool 2 (n = 9 rats). Intestinal microsomes were also prepared from intestinal tissue flash‐frozen in tubes on arrival in the laboratory and kept at −80°C until thawing on ice on the morning of preparation, (n = 3 occasions of n = 3 samples). In addition, for comparative purposes microsomes were also prepared from scraped intestinal tissues. Microsomes were prepared after cutting along the length of intestine and gently scraping the intestinal epithelial with a glass microscope slide (n = 1 occasion, n = 3 samples). Commercially available pooled intestinal microsomes were also used as a comparator to those produced in‐house. […] The microsomes were stored at −80°C prior to experiments.
(§2) Midazolam and 7‐hydroxycoumarin were both incubated at 1 mg/ml and 0.5 mg/ml. The microsomes were incubated on ice with alamethacin (50 μg/mg) for 15 min. […] The samples were quenched with ice cold acetonitrile (3:1 quench to sample) containing the internal standard (AZ1). The total incubation time was 40 min. Quenched samples were stored overnight at −20°C. The following day, the samples were diluted with 200 μl UPH2O, and spun at 3000 rpm (Sorvall legend RT centrifuge) for 15 min, and 200 μl of supernatant taken for analysis.

[5] = Substrate depletion in in-house rat intestinal microsome pools 1 and 2, combined CYP and UGT cofactors; conditions: Han-Wistar, rat, microsomes, pH 7.4, CL int,u, in-house combined cofactors, 1 μM compound
Method: as §1
The microsomes prepared from the final optimized preparation method (method 8) were measured for CYP content on the day of preparation prior to storage. These microsomes (n = 3 samples prepared on n = 3 separate occasions) were subsequently thawed on ice and pooled for pool 1. The pool 1 microsomes were then assayed for testosterone and 4‐NP metabolite formation. Additional intestinal microsomes were created using the identical methodology with the same number of rat intestinal samples (n = 3 samples prepared on n = 3 occasions) and assayed for testosterone and 4‐NP metabolite formation as well as for CYP content on the day of preparation before storage. The microsomes from this second set of preparations were then thawed and pooled to form pool 2.
as §2

[6] = In vitro-in vivo extrapolation of rat intestinal unbound intrinsic clearance (CL int,u,gut); format: in vitro ADME
Description: The CL int,u values were scaled to give CL int,u,gut using scaling factors for the corresponding microsomal pool (Eq. (5)). The use of scalars from the mean of both pools was also investigated, and was also used for scaling of commercial microsome CL int,u data.
(5) CLint,u,G=CLuint⋅MPPGI⋅Intestine Segment Weight

[7] = Nonspecific protein binding in rat intestinal microsomes (96-well micro-equilibrium dialysis); conditions: rat intestinal microsomes 1 mg/ml, compound 1 μM
Method: Nonspecific protein binding was determined in microsomes (1 mg/ml) using high throughput 96‐well micro‐equilibrium dialysis methodology (HTDialysis, LLC, Gales Ferry, CT, USA). These experiments used dialysis membrane strips with 12–14 kDa molecular mass cut‐off (HTDialysis). The microsomes were constituted in 0.1 M phosphate buffer (pH 7.4). The final concentrations of the test compounds was 1 μM. Microsomes containing the test compound were aliquoted into donor wells in triplicate, and buffer placed in the acceptor wells. The plate was incubated at 37°C and left to equilibrate on a plate shaker (450 rpm) for 4 h. Samples from both the acceptor and donor sides of the membrane were then transferred to 96‐well plates and quenched in acetonitrile containing internal standard (AZ1). The same sample preparation and LC–MS/MS methodology was used as described for the microsomal incubations. Compound MS transitions and retention times are reported in Supplemental material Table 3. Fuinc was calculated as the ratio of acceptor to donor both normalized for internal standard as described previously 41. Correction for protein binding for depletion experiments undertaken at 0.5 mg/ml were made using Equation (4).
(4) fumic,2=1/[P]mic,2/Pmic,1×1−fumic,1/fumic,1+1
where mic,1 denotes 1 mg/ml and mic,2 is 0.5 mg/ml.

[8] = previous study, corrected for fu inc of this study; cited from earlier work
[9] = Pool 1, FT (1 freeze-thaw cycle)

## O=[N+]([O-])c1ccc(O)cc1 [4‐NP, 4‐nitrophenol]
[1]
  4-NP glucuronidation, previously reported: 7 ± 0.81 nmol/min/mg

## C[C@]12CC[C@H]3[C@@H](CCC4=CC(=O)CC[C@@]43C)[C@@H]1C[C@@H](O)[C@@H]2O [16α‐OH TEST]
[2]
  Fold higher mean metabolite formation in pool 2 (vs pool 1): 2.5 fold

## C[C@]12CCC(=O)C=C1CC[C@@H]1[C@@H]2CC[C@]2(C)C(=O)CC[C@@H]12 [Androstenedione]
[2]; Commercial HW, FT
  Maximal rate of testosterone metabolite formation: 314.5 ± 55.3 pmol/min/mg
[2]; Commercial SD, FT
  Maximal rate of testosterone metabolite formation: 371.6 ± 7.2 pmol/min/mg
[2]; [9]
  Maximal rate of testosterone metabolite formation: 560.7 ± 6.6 pmol/min/mg
[2]; Pool 2, FT
  Maximal rate of testosterone metabolite formation: 548.7 ± 188.7 pmol/min/mg
[2]; Pool 2, Fresh
  Maximal rate of testosterone metabolite formation: 429.9 ± 30.9 pmol/min/mg
[2]; Scraping, FT
  Maximal rate of testosterone metabolite formation: 457.0 ± 60.4 pmol/min/mg

## C[C@]12CC[C@H]3[C@@H](C[C@@H](O)C4=CC(=O)CC[C@@]43C)[C@@H]1CC[C@@H]2O [6β‐OH TEST]
[2]; Commercial HW, FT
  Maximal rate of testosterone metabolite formation: 190 ± 53.5 pmol/min/mg
[2]; Commercial SD, FT
  Maximal rate of testosterone metabolite formation: 167.2 ± 43.7 pmol/min/mg
[2]; [9]
  Maximal rate of testosterone metabolite formation: 85.3 ± 32.5 pmol/min/mg
[2]; Pool 2, FT
  Maximal rate of testosterone metabolite formation: 187.5 pmol/min/mg and 187.5 ± 77.8 pmol/min/mg
[2]; Pool 2, Fresh
  Maximal rate of testosterone metabolite formation: 113.3 pmol/min/mg and 113.3 ± 30.9 pmol/min/mg
[2]; Scraping, FT
  Maximal rate of testosterone metabolite formation: 66.1 pmol/min/mg and 66.1 ± 4.8 pmol/min/mg
[2]
  Fold higher mean metabolite formation in pool 2 (vs pool 1): 2.2 fold
[3]
  6β-OH TEST formation, previously reported: 289 ± 5 pmol/min/mg

## Cc1ncc2n1-c1ccc(Cl)cc1C(c1ccccc1F)=NC2 [Midazolam]
[4]; commercial Han Wistar microsomes, individual cofactors
  Main route of elimination (CYP vs UGT cofactors): CYP mediated metabolism
[4]; CYP cofactors, CYP cofactors only
  microsomal CLint at 1 μM: 18.2 µL/min/mg
[4]; Combined cofactors, combined CYP and UGT cofactors
  microsomal CLint at 1 μM: 12.3 µL/min/mg
[4]; UGT cofactors, UGT cofactors only
  microsomal CLint at 1 μM: 2.8 µL/min/mg
[5]; Pool 1, pool 1, 1 mg/ml, CYP and UGT cofactors
  microsomal CLint at 1 μM: 22 µL/min/mg
[5]; Pool 2, pool 2, cell marked with footnotes a and b (1 mg/ml and 0.5 mg/ml)
  microsomal CLint at 1 μM: 18.2 µL/min/mg
[6]; mean of pool 1 and pool 2 CL int,u and scaling factors
  CL int,u,gut, Combined in-house pools: 6.12 L/h
[6]; pool 1, pool specific scaling factors, threshold 0.01 l/h
  CL int,u,gut, Pool 1 Mean: 4.13 L/h
[6]; pool 2, pool specific scaling factors, threshold 0.01 l/h
  CL int,u,gut, Pool 2 Mean: 7.36 L/h
[7]
  fuinc: 0.72
[8]
  CL int,u in commercially available Sprague-Dawley microsomes: 8.3 µL/min/mg
